Format in all cases: functional
The subject of test [1] is Plasmodiophora brassicae. Description: Fungicidal activity against clubroot disease causing Plasmodiophora brassicae infested Brassica campestris under greenhouse condition assessed as disease incidence at 4 kg a.i/ha treated to soil measured after 40 to 50 days.
In test [2] the test system is Plasmodiophora brassicae. Description: Fungicidal activity against clubroot disease causing Plasmodiophora brassicae infested Brassica campestris under greenhouse condition assessed as disease incidence at 2 kg a.i/ha treated to soil measured after 40 to 50 days.
Test [3] deals with Plasmodiophora brassicae. The test is described as follows: Fungicidal activity against clubroot disease causing Plasmodiophora brassicae infested Brassica campestris under greenhouse condition assessed as disease incidence at 0.5 kg a.i/ha treated to soil measured after 40 to 50 days.

Where only a bound is given, the exact number is not on record here.

Among the data in ChEMBL document CHEMBL3044820, “Evaluation of Benzenesulfonanilide Derivatives for the Control of Crucifers Clubroot” (1996) are Activity values, retold here.

For the compound `Cc1cc([N+](=O)[O-])ccc1NS(=O)(=O)c1cccc(C#N)c1`, the Activity in the test on Plasmodiophora brassicae [1] and with Plasmodiophora brassicae [2] was 0% throughout.
As to `Cc1cc([N+](=O)[O-])ccc1NS(=O)(=O)c1ccc(Cl)c(C(F)(F)F)c1`, the Activity in the test on Plasmodiophora brassicae [3] was 26%; in the test with Plasmodiophora brassicae [1], greater than 91%; with Plasmodiophora brassicae [2], greater than 91%.
On to `O=[N+]([O-])c1ccc(NS(=O)(=O)c2cc(Cl)c(Cl)cc2Cl)c(Cl)c1`, for which the Activity in the test on Plasmodiophora brassicae [3] is 51%; in the test with Plasmodiophora brassicae [1] it was greater than 91%; with Plasmodiophora brassicae [2], greater than 91%.
For `O=S(=O)(Nc1ccc(C(F)(F)F)cc1Cl)c1ccc(Cl)cc1`, the Activity in the test with Plasmodiophora brassicae [3] was 26%; with Plasmodiophora brassicae [1] it was greater than 91%; with Plasmodiophora brassicae [2] it was greater than 91%.
Consider `CCOC(=O)c1ccc(NS(=O)(=O)c2ccc(Cl)cc2)c(Cl)c1`, for which, in the test on Plasmodiophora brassicae [1], the Activity was found to be 0%.
As for `Cc1ccc(S(=O)(=O)Nc2ccc([N+](=O)[O-])cc2Cl)cc1`, the values for the Activity with Plasmodiophora brassicae [3], with Plasmodiophora brassicae [1] and in the test with Plasmodiophora brassicae [2] were 26%, greater than 91% and greater than 91%, respectively.
With `N#Cc1cccc(S(=O)(=O)Nc2ccc(C(F)(F)F)cc2)c1`, the figures for the Activity in the test on Plasmodiophora brassicae [1] and in the test on Plasmodiophora brassicae [2] were 26% and 0%, respectively.
Regarding `N#Cc1cccc(S(=O)(=O)Nc2ccc(C(F)(F)F)cc2Cl)c1`, the Activity is given as 51% with Plasmodiophora brassicae [1] and 0% in the test on Plasmodiophora brassicae [2].
Consider `O=S(=O)(Nc1ccc(C(F)(F)F)cc1)c1cccc(C(F)(F)F)c1`, for which the Activity in the test on Plasmodiophora brassicae [1] worked out at 0%.
With `Cc1ccc(S(=O)(=O)Nc2cc([N+](=O)[O-])ccc2Cl)cc1[N+](=O)[O-]`, the Activity is recorded as 26% in the test with Plasmodiophora brassicae [1] and 0% in the test on Plasmodiophora brassicae [2].
In the same order, the values of `Cc1ccc(S(=O)(=O)Nc2ccc([N+](=O)[O-])cc2)cc1[N+](=O)[O-]` are 26% and 0%.
For the compound `COC(=O)c1ccc(NS(=O)(=O)c2cccc(C(F)(F)F)c2)cc1`, the Activity with Plasmodiophora brassicae [1] amounted to 0%.
Turning to `O=[N+]([O-])c1cccc(S(=O)(=O)Nc2ccc([N+](=O)[O-])cc2Cl)c1`, the Activity in the test on Plasmodiophora brassicae [1] stood at 71%; with Plasmodiophora brassicae [2] it was 26%.
As to `CN(C)C(=O)c1ccc(NS(=O)(=O)c2cccc(C(F)(F)F)c2)cc1`, the Activity with Plasmodiophora brassicae [1] stood at 0%.
Regarding `O=[N+]([O-])c1cc(Cl)c(NS(=O)(=O)c2ccccc2)c(Cl)c1`, the Activity was greater than 91% in the test with Plasmodiophora brassicae [1] and 0% with Plasmodiophora brassicae [2].
Turning to `Cc1cc([N+](=O)[O-])ccc1NS(=O)(=O)c1cc(C(F)(F)F)ccc1Cl`, the Activity in the test on Plasmodiophora brassicae [3] was 0%; with Plasmodiophora brassicae [1], greater than 91%; with Plasmodiophora brassicae [2] it was greater than 91%.
Take `Cc1ccc(S(=O)(=O)Nc2ccc(C(F)(F)F)cc2)cc1`: the figures for the Activity in the test on Plasmodiophora brassicae [3], in the test on Plasmodiophora brassicae [1] and in the test on Plasmodiophora brassicae [2] were 0%, 26% and 26%, respectively.
As for `N#Cc1cccc(S(=O)(=O)Nc2ccc([N+](=O)[O-])cc2Cl)c1`, the Activity in the test with Plasmodiophora brassicae [1] and in the test on Plasmodiophora brassicae [2] was 0% in each case.
With `COc1ccc([N+](=O)[O-])cc1NS(=O)(=O)c1ccccc1[N+](=O)[O-]`, the Activity in the test on Plasmodiophora brassicae [1] is 0%.
For `O=[N+]([O-])c1ccc(NS(=O)(=O)c2ccc([N+](=O)[O-])cc2)cc1`, the Activity in the test on Plasmodiophora brassicae [1] and in the test on Plasmodiophora brassicae [2] was 0% in each case.
Consider `Cc1ccc([N+](=O)[O-])cc1NS(=O)(=O)c1ccc([N+](=O)[O-])cc1`, for which the Activity in the test on Plasmodiophora brassicae [1] is given as 0%.
For `Cc1cc([N+](=O)[O-])ccc1NS(=O)(=O)c1ccc(Cl)c(Cl)c1`, the Activity in the test with Plasmodiophora brassicae [3] was 0%; with Plasmodiophora brassicae [1], greater than 91%; in the test with Plasmodiophora brassicae [2], greater than 91%.
`O=[N+]([O-])c1ccc(NS(=O)(=O)c2ccc(Cl)c(Cl)c2)c(Cl)c1`: the Activity is listed as greater than 91% in the test on Plasmodiophora brassicae [1] and 26% with Plasmodiophora brassicae [2].
`N#Cc1ccc(NS(=O)(=O)c2cccc(C(F)(F)F)c2)c(Cl)c1`: the Activity in the test with Plasmodiophora brassicae [3] was 0%; in the test with Plasmodiophora brassicae [1] it was greater than 91%; in the test on Plasmodiophora brassicae [2], 51%.
For the compound `Cc1cc([N+](=O)[O-])ccc1NS(=O)(=O)c1ccc(Cl)cc1`, the figures for the Activity with Plasmodiophora brassicae [1] and in the test with Plasmodiophora brassicae [2] were greater than 91% and 0%, respectively.
As for `Cc1ccc([N+](=O)[O-])cc1S(=O)(=O)Nc1ccc([N+](=O)[O-])cc1Cl`, the Activity with Plasmodiophora brassicae [3] is 0%; in the test with Plasmodiophora brassicae [1], greater than 91%; in the test on Plasmodiophora brassicae [2], greater than 91%.
`COc1ccc([N+](=O)[O-])cc1NS(=O)(=O)c1cccc([N+](=O)[O-])c1`: the Activity in the test on Plasmodiophora brassicae [1] is recorded as 0%.
`N#Cc1cccc(S(=O)(=O)Nc2ccc(Cl)cc2Cl)c1`: in the test with Plasmodiophora brassicae [1], the Activity is 0%.
On to `O=[N+]([O-])c1ccc(NS(=O)(=O)c2cccc(C(F)(F)F)c2)c(F)c1`, for which the Activity with Plasmodiophora brassicae [3], in the test on Plasmodiophora brassicae [1] and in the test on Plasmodiophora brassicae [2] was greater than 91% throughout.
In the case of `Cc1cc([N+](=O)[O-])ccc1NS(=O)(=O)c1ccc([N+](=O)[O-])cc1`, the Activity with Plasmodiophora brassicae [1] and in the test on Plasmodiophora brassicae [2] was 0% each time.
On to `Cc1ccc([N+](=O)[O-])cc1NS(=O)(=O)c1ccc(C)c([N+](=O)[O-])c1`, for which, in the test with Plasmodiophora brassicae [1], the Activity is reported as 0%.
As to `Cc1ccc(C)c(S(=O)(=O)Nc2ccc([N+](=O)[O-])cc2C)c1`, the values for the Activity with Plasmodiophora brassicae [1] and with Plasmodiophora brassicae [2] were greater than 91% and 26%, respectively.
The corresponding values for `Cc1ccc(S(=O)(=O)Nc2ccc(C(F)(F)F)cc2Cl)cc1` are 51% and 0%.
As to `Cc1ccc(C)c(S(=O)(=O)Nc2ccc([N+](=O)[O-])cc2Cl)c1`, the Activity is listed as 0% in the test on Plasmodiophora brassicae [3], greater than 91% in the test with Plasmodiophora brassicae [1] and greater than 91% in the test with Plasmodiophora brassicae [2].
Consider `O=[N+]([O-])c1ccc(NS(=O)(=O)c2ccccc2[N+](=O)[O-])cc1`, for which the Activity is given as 51% with Plasmodiophora brassicae [1] and 0% in the test on Plasmodiophora brassicae [2].
In the case of `O=S(=O)(Nc1ccccc1Cl)c1cc(C(F)(F)F)ccc1Cl`, the Activity in the test with Plasmodiophora brassicae [1] was 0%.
On to `Cc1ccc(S(=O)(=O)Nc2cccc([N+](=O)[O-])c2)cc1[N+](=O)[O-]`, for which, in the test on Plasmodiophora brassicae [1], the Activity is given as 0%.
On to `Cc1ccc(NS(=O)(=O)c2ccc([N+](=O)[O-])cc2)c([N+](=O)[O-])c1`, for which the Activity in the test on Plasmodiophora brassicae [1] was determined as 0%.
Regarding `O=[N+]([O-])c1cccc(NS(=O)(=O)c2cccc([N+](=O)[O-])c2)c1`, in the test on Plasmodiophora brassicae [1], the Activity was 0%.
On to `O=S(=O)(Nc1ccc(C(F)(F)F)cc1)c1ccc(Cl)c(Cl)c1`, for which the Activity in the test on Plasmodiophora brassicae [3] is listed as 0%; with Plasmodiophora brassicae [1], greater than 91%; in the test on Plasmodiophora brassicae [2], 26%.
For the compound `O=S(=O)(Nc1ccc(C(F)(F)F)cc1Cl)c1ccc(Cl)c(C(F)(F)F)c1`, the values for the Activity in the test with Plasmodiophora brassicae [3], in the test with Plasmodiophora brassicae [1] and in the test on Plasmodiophora brassicae [2] were 26%, greater than 91% and greater than 91%, respectively.
Regarding `O=[N+]([O-])c1ccc(NS(=O)(=O)c2ccc(Cl)cc2)c(Cl)c1`, the Activity in the test with Plasmodiophora brassicae [1] and in the test on Plasmodiophora brassicae [2] was greater than 91% in each case.
`Cc1cc([N+](=O)[O-])ccc1NS(=O)(=O)c1cccc(C(F)(F)F)c1`: the results for the Activity in the test on Plasmodiophora brassicae [3], in the test on Plasmodiophora brassicae [1] and in the test on Plasmodiophora brassicae [2] were 0%, greater than 91% and greater than 91%, respectively.
As for `Cc1ccc([N+](=O)[O-])cc1S(=O)(=O)Nc1c(Cl)cc([N+](=O)[O-])cc1Cl`, the figures for the Activity in the test with Plasmodiophora brassicae [3], in the test on Plasmodiophora brassicae [1] and in the test on Plasmodiophora brassicae [2] were 26%, greater than 91% and greater than 91%, respectively.
Turning to `O=[N+]([O-])c1ccc(NS(=O)(=O)c2ccccc2)c(Cl)c1`, the Activity in the test on Plasmodiophora brassicae [1] is greater than 91%; in the test on Plasmodiophora brassicae [2] it was 0%.
Take `Cc1ccc(S(=O)(=O)Nc2ccc(F)c([N+](=O)[O-])c2)cc1[N+](=O)[O-]`: the Activity in the test on Plasmodiophora brassicae [1] is 51%; in the test on Plasmodiophora brassicae [2], 26%.
For the compound `Cc1ccc(S(=O)(=O)Nc2ccc(F)cc2)cc1`, the Activity with Plasmodiophora brassicae [1] is given as 0%.
Turning to `CN(C)C(=O)c1ccc(NS(=O)(=O)c2ccc(Cl)c(Cl)c2)c(Cl)c1`, the Activity in the test with Plasmodiophora brassicae [1] worked out at 0%.
Regarding `O=[N+]([O-])c1cccc(NS(=O)(=O)c2ccccc2[N+](=O)[O-])c1`, the Activity with Plasmodiophora brassicae [1] was 0%.
For the compound `N#Cc1ccc(NS(=O)(=O)c2cccc(C(F)(F)F)c2)cc1`, the Activity in the test with Plasmodiophora brassicae [1] stood at 0%.
Turning to `Cc1ccc(S(=O)(=O)Nc2ccc([N+](=O)[O-])cc2C)c(C)c1`, the Activity with Plasmodiophora brassicae [1] and in the test on Plasmodiophora brassicae [2] was 0% throughout.
`COc1ccc([N+](=O)[O-])cc1NS(=O)(=O)c1ccc([N+](=O)[O-])cc1`: the Activity in the test with Plasmodiophora brassicae [1] turned out to be 0%.
In the case of `Cc1ccc(S(=O)(=O)Nc2ccc([N+](=O)[O-])cc2C)cc1`, the Activity with Plasmodiophora brassicae [1] and with Plasmodiophora brassicae [2] was 0% each time.
Take `Cc1ccc([N+](=O)[O-])cc1NS(=O)(=O)c1ccc(Cl)c([N+](=O)[O-])c1`: the Activity in the test with Plasmodiophora brassicae [1] amounted to 0%.
As to `COC(=O)c1ccc(NS(=O)(=O)c2ccc(Cl)c(Cl)c2)c(Cl)c1`, in the test on Plasmodiophora brassicae [1], the Activity is recorded as 0%.
For `COC(=O)c1ccc(NS(=O)(=O)c2ccc(Cl)c(C(F)(F)F)c2)c(Cl)c1`, the Activity in the test with Plasmodiophora brassicae [1] was determined as 0%.
Take `O=[N+]([O-])c1ccc(S(=O)(=O)Nc2ccc([N+](=O)[O-])cc2Cl)cc1`: the Activity in the test on Plasmodiophora brassicae [1] and in the test with Plasmodiophora brassicae [2] was 0% in each case.
As to `O=[N+]([O-])c1ccc(S(=O)(=O)Nc2cccc([N+](=O)[O-])c2)cc1`, the Activity in the test with Plasmodiophora brassicae [1] is on record as 0%.
In the case of `CCOC(=O)c1ccc(NS(=O)(=O)c2cccc(C(F)(F)F)c2)cc1`, the Activity in the test on Plasmodiophora brassicae [1] and in the test on Plasmodiophora brassicae [2] was 0% throughout.
For the compound `Cc1ccc(NS(=O)(=O)c2ccc(C)c([N+](=O)[O-])c2)c([N+](=O)[O-])c1`, the Activity in the test with Plasmodiophora brassicae [1] worked out at 0%.
As for `N#Cc1ccc(NS(=O)(=O)c2ccc(Cl)c(Cl)c2)cc1`, the Activity in the test on Plasmodiophora brassicae [1] amounted to 0%.
As for `Cc1ccc(S(=O)(=O)Nc2ccc(Br)cc2)cc1`, the Activity in the test on Plasmodiophora brassicae [1] worked out at 0%.
Turning to `CCCOC(=O)c1ccc(NS(=O)(=O)c2cccc(C(F)(F)F)c2)cc1`, the Activity with Plasmodiophora brassicae [1] and with Plasmodiophora brassicae [2] was 0% each time.
For `Cc1ccc(S(=O)(=O)Nc2c(C)cccc2[N+](=O)[O-])cc1[N+](=O)[O-]`, the results for the Activity in the test on Plasmodiophora brassicae [1] and in the test with Plasmodiophora brassicae [2] were 26% and 0%, respectively.
`CN(C)C(=O)c1ccc(NS(=O)(=O)c2cccc(C(F)(F)F)c2)c(Cl)c1`: in the test on Plasmodiophora brassicae [1], the Activity was 0%.
As to `Cc1cc([N+](=O)[O-])ccc1NS(=O)(=O)c1ccc(C)c([N+](=O)[O-])c1`, the Activity in the test with Plasmodiophora brassicae [1] and in the test with Plasmodiophora brassicae [2] was 0% throughout.
